From patent publication US20060100180A1, “Composition containing an androgenous 11b-halogen steroid and a progestational hormone, and male contraceptive based on said composition” (priority 2002, published 2006)

Experiments:
[1] = cited from earlier work
[2] = effectiveness compared with testosterone; settings: more effective than testosterone

Row | SMILES | biological effectiveness compared with testosterone [1] | effectiveness relative to testosterone [2]
1 | C[C@@H]1CC2=CC(=O)CC[C@@H]2[C@H]2CC[C@]3(C)[C@@H](O)CC[C@H]3[C@@H]21 [7α-methyl-19-nortestosterone] | higher biological effectiveness than testosterone | –
2 | C[C@@H]1CC2=CC(=O)CC[C@@H]2[C@@H]2[C@@H]1[C@@H]1CC[C@H](O)[C@@]1(C)C[C@@H]2F [Compound A, 11β-fluoro-17β-hydroxy-7α-methyl-estr-4-en-3-one] | – | about 10 ×
